Laboratory results reported in patent publication US20230304064A1, “AUTOMATED, DIGITAL DISPENSING PLATFORM FOR MICRODILUTION ANTIMICROBIAL SUSCEPTIBILITY TESTING” (priority 2016, published 2023).
Values after ≈ are worked out from the molar mass of the structure shown. Read-outs that look alike come from different tables or passages of the source.

Assays:
[1] = tested on: eighty de-identified Enterobacteriaceae clinical isolates; test: organism not typed; assay type: cell-based; conditions: for Non-susceptible strains (%) / Non-susceptible strains n: eighty clinical isolates, reference microdilution, CLSI criteria, EUCAST for colistin
Protocol: K. pneumonia BIDMC12A is a previously described, carbapenem resistant clinical isolate (14) expressing a KPC-3 carbapenemase. The eighty de-identified Enterobacteriaceae clinical isolates (Table 1) used for verification studies were collected at our institution under IRB-approved protocols. All strains were minimally passaged and stored at -80° C. prior to use in this study.
Verification study: Digital dispensing and reference method testing were performed in parallel using the same inoculum preparation. Microdilution reference panels were pre-prepared and stored at -80° C. until use (less than 2 weeks). D300 test method panels were prepared fresh each day of use.
Accuracy was evaluated using established guidelines (16, 17). The MIC determined by the digital dispensing method was compared with the MIC determined by the broth microdilution reference method. Essential agreement, overall essential agreement, and categorical agreement were evaluated as described in the precision study.

[2] = tested on: S. aureus; test: Automated microscopy cell counting at inhibitory and sub-inhibitory antibiotic concentrations; assay type: cell-based, Staphylococcus aureus; conditions: 4 hours
Protocol: We performed preliminary automated imaging experiments on the Cell Observer microscope (Zeiss, Oberkochen, Germany) (37° C., 640x magnification, DIC). For these experiments, we utilized E. coli ATCC 25922 and S. aureus ATCC 25923 (FIG. 5), prototypical Gram-negative and Gram-positive pathogens. […] Therefore, we conducted automated imaging of the center of 20 wells using 20-50 z-slices of approximately 1 µm thickness. Each image represented approximately 43,500 µm^2. After collapsing z-slices into a single image per well, cells were readily detectable and distributed evenly throughout the field at a density of 10-30 cells per 1000 µm^2 in all wells evaluated.
As proof of concept and preliminary data for image analysis-based direct cell counting, we utilized a machine learning algorithm (Trainable Weka as contained within the Fiji implementation of ImageJ) (Schindelin et al., Nature Methods 9:676-682 (2012)). A training set of 200 manually segmented S. aureus cells was used to establish a model for cell detection. This model accepts raw image data as input (FIG. 7A), classifies each pixel of an image as containing “cells” or “background” resulting in a segmented image (FIG. 7B). The segmented image is then converted to a black and white binary format. A watershed algorithm refines the segmentation by defining borders where two or more cells are in contact with one another and prevents later erroneous single counting of these otherwise fused objects (FIG. 7C). The particle analysis function of ImageJ is then used to identify particles >0.25 µm^2 as individual bacteria (FIG. 7D). Identified bacteria are subsequently counted and their aggregate surface area calculated.
Using our cell counting model, we compared images of S. aureus grown on inhibitory and sub-inhibitory concentrations of antibiotics. […] At the same time point we observed that E. coli cells in wells with sub-inhibitory concentrations of antimicrobial formed large microcolonies, making analysis of individual cells difficult. In cases where individual cells could not be segmented, a machine learning algorithm similar to that outlined in (d) reliably quantifies relative cell coverage in each field.

[3] = tested on: carbapenem-resistant Klebsiella pneumoniae clinical isolates (blaKPC); test: DDM (digital dispensing method) MIC testing of CRE isolates; assay type: cell-based; conditions: for MIC: Klebsiella pneumoniae, read-out: DDM modal MICs
Protocol: (§1) Bacterial strains: The 10 de-identified CRE clinical isolates used in the study were collected at our institution under Institutional Review Board-approved protocols and were sequenced through the carbapenem-resistant Enterobacteriaceae genome initiative at the Broad Institute (Cambridge, MA). All contained a Klebsiella pneumoniae carbapenemase (blaKPC) gene and were colony-purified, minimally passaged, and stored at -80° C. prior to use in this study.
(§2) After incubation, bacterial growth was quantified by measurement of OD600 using an Epoch (BioTek, Winooski, VT) or Spark 10 M microplate reader (Tecan, Morrisville, NC). An OD600 reading of 0.08 or greater (approximately twice typical background readings in wells containing broth alone) was considered indicative of bacterial growth (as also appreciable by visual assessment).
(§3) Precision and accuracy. […] Modal DDM MICs were calculated by taking the mode of all DDM MIC measurements obtained for a given antibiotic-strain combination, inclusive of initial MIC titrations and single-antibiotic rows/columns in synergy arrays (Table 5).

[4] = tested on: carbapenem-resistant Escherichia coli clinical isolates (blaKPC); test: as above; assay type: cell-based; conditions: for MIC: Escherichia coli, read-out: DDM modal MICs
Protocol: as §1, §2, §3

[5] = tested on: P. mirabilis ATCC 702; test: MIC testing by broth microdilution and D300 digital dispensing (precision study); conditions: Proteus mirabilis, ATCC702, read-out: reference MIC
[6] = tested on: E. coli ATCC 25922; conditions: CLSI quality control range; cited from earlier work
[7] = tested on: E. coli ATCC 25922; test: MIC testing by broth microdilution and D300 digital dispensing (precision study); conditions: Escherichia coli, ATCC25922, read-out: reference MIC
[8] = tested on: E. coli ATCC 25922; test: Microscopy-based AST (MAST): cell morphology at the MIC
[9] = in vivo; cited from earlier work
[10] = tested on: Klebsiella pneumoniae strains expressing extended spectrum β-lactamases; conditions: cited from earlier work
[11] = tested on: Klebsiella pneumoniae strains expressing extended spectrum β-lactamases; conditions: cited from earlier work; remark: listed apart in the source

| Compound | Non-susceptible strains (%) [1] | Non-susceptible strains n [1] | MIC ([3]; BIDMC 10, KPN, KPC type 3) | MIC ([3]; BIDMC 12A, KPN, KPC type 3) | MIC ([4]; BIDMC 6, ECO, KPC type 2) | MIC ([4]; BIDMC 9, ECO, KPC type 2) | MIC ([4]; BIDMC 15, ECO, KPC type 2) | MIC ([4]; BIDMC 17A, ECO, KPC type 2) | MIC ([4]; BIDMC 20A, ECO, KPC type 3) | MIC ([3]; BIDMC 4, KPN, KPC type 3) | MIC ([3]; BIDMC 5, KPN, KPC type 3) | MIC ([3]; BIDMC 18A, KPN, KPC type 2) | other results |
| --- | --- | --- | --- | --- | --- | --- | --- | --- | --- | --- | --- | --- | --- |
| CC1(C)S[C@@H]2[C@H](NC(=O)[C@H](N)c3ccccc3)C(=O)N2[C@H]1C(=O)O [Ampicillin (AMP), Ampicillin] | 81.3% | 65 | – | – | – | – | – | – | – | – | – | – | area occupied by cells ([2]; 0.5 × the MIC): 555 µm^2; cells detected ([2]; 0.5 × the MIC): 242 cells; reduction of cell numbers at the MIC vs 0.5 × the MIC [2]: 5 fold; area occupied by cells ([2]; at the MIC): 47 µm^2; cells detected ([2]; at the MIC): 51 cells |
| O=C(N[C@H](CO)[C@H](O)c1ccc([N+](=O)[O-])cc1)C(Cl)Cl [CHL, chloramphenicol] | – | – | > 64 µg/mL | 64 µg/mL | 8 µg/mL | 8 µg/mL | 8 µg/mL | 8 µg/mL | 16 µg/mL | – | – | – | – |
| Cc1nnc(SCC2=C(C(=O)O)N3C(=O)[C@@H](NC(=O)Cn4cnnn4)[C@H]3SC2)s1 [Cefazolin (CFZ), Cefazolin] | – | – | – | – | – | – | – | – | – | – | – | – | MIC [5]: 4 µg/mL (≈ 8.8 µM); quality control range (MIC) [6]: 1 to 4 µg/mL; MIC [7]: 2 µg/mL (≈ 4.4 µM) |
| O=C(O)c1cn(C2CC2)c2cc(N3CCNCC3)c(F)cc2c1=O [Ciprofloxacin (CIP), Ciprofloxacin] | – | – | – | – | – | – | – | – | – | – | – | – | cell morphology at the MIC ([8]; MAST, 2-hour incubation): elongated cells that failed to divide |
| C[C@@H]1O[C@@H]1P(=O)(O)O [FOF, fosfomycin] | – | – | 64 µg/mL | 8 µg/mL | 0.5 µg/mL | 0.5 µg/mL | 0.5 µg/mL | 0.5 µg/mL | 1 µg/mL | 128 µg/mL | 8 µg/mL | 4 µg/mL | – |
| C[C@H]1COc2c(N3CCN(C)CC3)c(F)cc3c(=O)c(C(=O)O)cn1c23 [LVX, levofloxacin] | – | – | 16 µg/mL | 32 µg/mL | 16 µg/mL | 16 µg/mL | 32 µg/mL | 16 µg/mL | 32 µg/mL | 128 µg/mL | > 64 µg/mL | 64 µg/mL | – |
| CN(C)c1ccc(O)c2c1C[C@H]1C[C@H]3[C@H](N(C)C)C(O)=C(C(N)=O)C(=O)[C@@]3(O)C(O)=C1C2=O [MIN, minocycline] | – | – | 4 µg/mL | 4 µg/mL | 1 µg/mL | 1 µg/mL | 1 µg/mL | 1 µg/mL | 4 µg/mL | 8 µg/mL | 16 µg/mL | 2 µg/mL | serum concentrations [9]: higher serum concentrations than tigecycline; side effects [9]: generally favorable side-effect profile |
| C[C@@H](O)[C@H]1C(=O)N2C(C(=O)O)=C(S[C@@H]3CN[C@H](C(=O)N(C)C)C3)[C@H](C)[C@H]12 [Meropenem (MEM), Meropenem] | 17.5% | 14 | 4 µg/mL | 8 µg/mL | 2 µg/mL | 4 µg/mL | 4 µg/mL | 2 µg/mL | 1 µg/mL | 32 µg/mL | 8 µg/mL | 32 µg/mL | cell morphology at the MIC ([8]; E. coli after 2 hours, FIG. 13): swelling; cell morphology at the MIC ([8]; MAST, 2-hour incubation): rounded sphereoplasts; in vitro inoculum effect [10]: insignificant inoculum effect; MIC ([1]; read-out: modal MIC): 0.03 µg/mL (≈ 0.0782 µM); survival of infected mice after treatment ([11]; high dose inoculum): survived; survival of infected mice after treatment ([11]; low bacterial inoculum): survived |
| CO[C@H]1/C=C/O[C@@]2(C)Oc3c(C)c(O)c4c(O)c(c(/C=N/N5CCN(C)CC5)c(O)c4c3C2=O)NC(=O)/C(C)=C\C=C\[C@H](C)[C@H](O)[C@@H](C)[C@@H](O)[C@@H](C)[C@H](OC(C)=O)[C@@H]1C [RIF, rifampin] | – | – | 32 µg/mL | 32 µg/mL | 16 µg/mL | 16 µg/mL | 32 µg/mL | 32 µg/mL | 16 µg/mL | 32 µg/mL | 32 µg/mL | 16 µg/mL | – |
| CN(C)[C@@H]1C(O)=C(C(N)=O)C(=O)[C@@]2(O)C(O)=C3C(=O)c4c(O)cccc4[C@@](C)(O)[C@H]3C[C@@H]12 [Tetracycline (TET), Tetracycline] | 42.5% | 34 | – | – | – | – | – | – | – | – | – | – | – |
| CN(C)c1cc(NC(=O)CNC(C)(C)C)c(O)c2c1C[C@H]1C[C@H]3[C@H](N(C)C)C(O)=C(C(N)=O)C(=O)[C@@]3(O)C(O)=C1C2=O [tigecycline] | – | – | – | – | – | – | – | – | – | – | – | – | side effects [9]: significant rates of nausea and vomiting; urinary excretion [9]: limited urinary excretion |
| Gentamicin [Gentamicin (GEN)] | 31.3% | 25 | – | – | – | – | – | – | – | – | – | – | cell morphology at the MIC ([8]; MAST, 2-hour incubation): blocked cell growth, but did not appreciably alter morphology; DDM modal MICs ([3]; BIDMC 4, KPN, KPC type 3): 32 mg/L; DDM modal MICs ([3]; BIDMC 5, KPN, KPC type 3): 32 mg/L; DDM modal MICs ([3]; BIDMC 10, KPN, KPC type 3): 32 mg/L; DDM modal MICs ([3]; BIDMC 12A, KPN, KPC type 3): 1 mg/L; DDM modal MICs ([3]; BIDMC 18A, KPN, KPC type 2): 64 mg/L; DDM modal MICs ([4]; BIDMC 6, ECO, KPC type 2): >32 mg/L; DDM modal MICs ([4]; BIDMC 9, ECO, KPC type 2): >32 mg/L; DDM modal MICs ([4]; BIDMC 15, ECO, KPC type 2): 64 mg/L; DDM modal MICs ([4]; BIDMC 17A, ECO, KPC type 2): >32 mg/L; DDM modal MICs ([4]; BIDMC 20A, ECO, KPC type 3): 0.5 mg/L |
